Results on 41 compounds are retold here after patent US10273237B2, “Imidazopyridazine compounds useful as modulators of IL-12, IL-23 and/or IFN-α responses” (BRISTOL-MYERS SQUIBB COMPANY, priority 2013, dated 2019).

Test [1] deals with T1, His-tagged protein corresponding to amino acids 575-869 of human Tyk2 (Homo sapiens, UniProt P29597).
T1 construct: made in house
Put plainly: Probe displacement assay (scintillation proximity, radiolabeled probe). Conditions: 2.5 nM Tyk2 (575-869), 40 nM [3H] probe, 30 minutes at room temperature. Type of test: binding. The method, then:
The preparation of radiolabeled probe, (R)—N-(1-(3-(8-methyl-5-(methylamino)-8H-imidazo[4,5-d]thiazolo[5,4-b]pyridin-2-yl)phenyl)ethyl)-2-([^3H]methylsulfonyl)benzamide, was performed as described below: […]
A general note: Scintillation proximity formats need no separation of bound from free tracer.

The subject of test [2] is IFNα-stimulated Kit225 T cells with STAT-dependent luciferase reporter. Description: Kit225 T cell assay, STAT-dependent luciferase reporter, IFNα stimulated. Format: cell-based, human. Conditions: 5-6 hours, read-out: IFNa Kit225 Reporter, LE (IC50). The procedure, abridged: (§1)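 Kit225 T cells carrying a stably integrated STAT-dependent luciferase reporter, in RPMI with 10% heat-inactivated FBS, stimulated with 20 ng/mL human recombinant IL-23 or 200 U/mL human recombinant IFNα for 5-6 h. Luciferase expression read by Steady-Glo luminescence.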
A general note: In a reporter assay the amount or activity of a reporter protein is the signal.

Test [3] has as its system IL-23-stimulated Kit225 T cells with STAT-dependent luciferase reporter. Description: Kit225 T cell assay, STAT-dependent luciferase reporter, IL-23 stimulated. Format: cell-based, human. As to conditions: read-out: IL-23 Kit225 Reporter, LE (IC50). The procedure, abridged: as §1
Where [4] appears, read: 200 U/mL human recombinant IFNα.
[5] abbreviates: Homo sapiens, KIT225, 200 U/mL human recombinant IFNα.
[6] abbreviates: 20 ng/mL human recombinant IL-23, 5-6 hours.
The mark [7] stands for this setting: Homo sapiens, KIT225, 20 ng/mL human recombinant IL-23, 5-6 hours.

Several values for one entry are separate records, joined by “and”; a condition that tells them apart may be missing. Identical values can stand only once. Like-named read-outs stand apart in the source and are kept apart here.

T1 sequence (P29597 with tags, fused parts or gaps): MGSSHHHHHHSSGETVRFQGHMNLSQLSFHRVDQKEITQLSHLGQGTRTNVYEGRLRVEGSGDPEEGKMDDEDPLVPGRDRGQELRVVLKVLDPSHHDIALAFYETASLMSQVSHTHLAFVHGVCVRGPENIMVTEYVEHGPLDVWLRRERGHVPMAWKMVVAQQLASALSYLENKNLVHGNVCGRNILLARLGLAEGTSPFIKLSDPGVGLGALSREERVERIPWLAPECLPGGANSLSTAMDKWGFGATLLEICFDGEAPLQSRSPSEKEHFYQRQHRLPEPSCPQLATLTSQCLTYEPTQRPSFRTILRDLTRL

As a reminder, the EC50 is the concentration at which the effect is half-maximal. Read a high EC50 as lower potency in that assay. `CNc1cc(Nc2cccn(-c3cnccn3)c2=O)nn2c(C(=O)NCC(C)(C)CO)cnc12` [Example 109] gave an EC50 in test [1] of 0.004 µM.

Broadly, the IC50 is the concentration at which inhibition is half-maximal. As for `CNc1cc(Nc2cccn(C)c2=O)nn2c(C(=O)NCC(C)(C)C)cnc12` [Example 207], the EC50 in test [1] is 0.015 µM and 0.022 µM. For the same compound, the values for the IC50 in test [2] (setting [4]) and in test [2] (setting [5]) were 0.26 µM and 0.18 µM, respectively.

`CNc1cc(Nc2cccn(C3CCCCC3)c2=O)nn2c(C(=O)NC3CC3)cnc12` [Example 226]: the IC50 in test [3] (setting [6]) was 0.24 µM; in test [2] (setting [4]), 0.09 µM.

As for `CNc1cc(Nc2cccn(C3CCC(O)CC3)c2=O)nn2c(C(=O)NC3CC3)cnc12` (stereo not shown) [Example 227], the IC50 in test [3] (setting [6]) was found to be 0.62 µM; in test [2] (setting [4]), 0.37 µM.

Consider `CNc1cc(Nc2cccn(C3CCC3)c2=O)nn2c(C(=O)NC3CC3)cnc12` [Example 228], for which the IC50 is 0.21 µM in test [3] (setting [6]) and 0.1 µM in test [2] (setting [4]).

Regarding `CNc1cc(Nc2cccn(C3CCC3)c2=O)nn2c(C(=O)NC3(C#N)CC3)cnc12` [Example 229], the IC50 in test [3] (setting [6]) is 0.24 µM; in test [2] (setting [4]), 0.18 µM.

Turning to `CCNc1cc(Nc2cccn(C)c2=O)nn2c(C(=O)NC3CCC3)cnc12` [Example 232], the IC50 in test [3] (setting [6]) was determined as 0.48 µM; in test [2] (setting [4]), 0.27 µM.

In the case of `CCC(CC)NC(=O)c1cnc2c(NC)cc(Nc3cccn(-c4ccc(C)nn4)c3=O)nn12` [Example 233], the 50% inhibitory concentration (IC50) in test [3] (setting [6]) is 0.72 µM; in test [2] (setting [4]), 0.28 µM.

For the compound `CNc1cc(Nc2cccn(-c3ccc(C)nn3)c2=O)nn2c(C(=O)NC(C)COC)cnc12` (stereo not shown) [Example 234], the IC50 in test [3] (setting [6]) turned out to be 0.29 µM; in test [2] (setting [4]) it was 0.14 µM.

On to `CNc1cc(Nc2cccn(-c3ccc(C)nn3)c2=O)nn2c(C(=O)NC(C)CC(C)C)cnc12` (stereo not shown) [Example 235], for which the IC50 in test [3] (setting [6]) was 0.56 µM; in test [2] (setting [4]), 0.91 µM.

Regarding `CNc1cc(Nc2cccn(-c3ccccn3)c2=O)nn2c(C(=O)NC3CCC(O)C3(C)C)cnc12` (stereo not shown) [Example 236], the IC50 turned out to be 0.85 µM in test [3] (setting [6]) and 0.35 µM in test [2] (setting [4]).

Turning to `CNc1cc(Nc2cccn(-c3ccccc3)c2=O)nn2c(C(=O)NC3CCC(O)C3(C)C)cnc12` (stereo not shown) [Example 237], the IC50 is 0.44 µM in test [3] (setting [6]) and 0.4 µM in test [2] (setting [4]).

Take `CNc1cc(Nc2cccn(-c3cncc(C)n3)c2=O)nn2c(C(=O)NCC(C)(C)CO)cnc12` [Example 238]: the IC50 in test [3] (setting [6]) stood at 0.06 µM; in test [2] (setting [4]) it was 0.53 µM.

Take `O=C(NC1CCC1)c1cnc2c3c(c(Nc4cccn(-c5ccccn5)c4=O)nn12)OCCN3` [Example 239, N-Cyclobutyl-6-((2-oxo-2H-[1,2′-bipyridin]-3-yl)amino)-9,10-dihydro-8H-imidazo[1′,2′:1,6]pyridazino[4,5-b][1,4]oxazine-3-carboxamide]: the results for the IC50 in test [3] (setting [7]) and in test [2] (setting [5]) were 0.21 µM and 0.1 µM, respectively.

For the compound `O=C(NC1CC1)c1cnc2c3c(c(Nc4cccn(-c5ccccn5)c4=O)nn12)OCCN3` [Example 240], the IC50 in test [3] (setting [7]) came out at 0.06 µM; in test [2] (setting [5]) it was 0.21 µM.

For the compound `O=C(N[C@H]1C[C@@H]1F)c1cnc2c3c(c(Nc4cccn(-c5ccccn5)c4=O)nn12)OCCN3` [Example 241], the IC50 is 0.14 µM in test [3] (setting [7]) and 0.09 µM in test [2] (setting [5]).

Regarding `CC(C)(CO)CNC(=O)c1cnc2c3c(c(Nc4cccn(-c5ccccn5)c4=O)nn12)OCCN3` [Example 242], the half-maximal inhibitory concentration (IC50) in test [3] (setting [7]) came out at 0.17 µM; in test [2] (setting [5]), 0.36 µM.

Consider `CCn1cc(Cl)cc(Nc2cc(NC)c3ncc(C(=O)NC4CC4)n3n2)c1=O` [Example 243, 6-((5-chloro-1-ethyl-2-oxo-1,2-dihydropyridin-3-yl)amino)-N-cyclopropyl-8-(methylamino)imidazo[1,2-b]pyridazine-3-carboxamide], for which the IC50 came to 0.05 µM in test [3] (setting [7]) and 0.02 µM in test [2] (setting [5]).

As to `CCCCn1cc(Cl)cc(Nc2cc(NC)c3ncc(C(=O)NC4CC4)n3n2)c1=O` [Example 244], the IC50 turned out to be 0.29 µM in test [3] (setting [7]) and 0.12 µM in test [2] (setting [5]).

Turning to `CNc1cc(Nc2cccn(C3CCN(C(=O)C4(C(F)(F)F)CC4)CC3)c2=O)nn2c(C(=O)NC3CC3)cnc12` [Example 246], the IC50 is 0.2 µM in test [3] (setting [7]) and 0.22 µM in test [2] (setting [5]).

For `CNc1cc(Nc2cccn(C3CCN(C(=O)C4CCCO4)CC3)c2=O)nn2c(C(=O)NC3CC3)cnc12` (stereo not shown) [Example 247], the IC50 in test [3] (setting [7]) is 0.42 µM; in test [2] (setting [5]) it was 0.35 µM.

For `CNc1cc(Nc2cccn(C3CCN(C(=O)C4CC4(F)F)CC3)c2=O)nn2c(C(=O)NC3CC3)cnc12` (stereo not shown) [Example 248], the results for the IC50 in test [3] (setting [7]) and in test [2] (setting [5]) were 0.28 µM and 0.23 µM, respectively.

Turning to `CCC(=O)N1CCC(n2cccc(Nc3cc(NC)c4ncc(C(=O)NC5CC5)n4n3)c2=O)CC1` [Example 249], the IC50 in test [3] (setting [7]) came to 0.5 µM; in test [2] (setting [5]), 0.25 µM.

On to `CNc1cc(Nc2cccn(C3CCN(CC(F)F)CC3)c2=O)nn2c(C(=O)NC3CC3)cnc12` [Example 250], for which the IC50 was 0.1 µM in test [3] (setting [7]) and 0.39 µM in test [2] (setting [5]).

Turning to `CNc1cc(Nc2cccn(C3CCN(C(C)=O)CC3)c2=O)nn2c(C(=O)NC3C[C@@H]3F)cnc12` (stereo partly shown) [Example 251], the IC50 in test [3] (setting [7]) was 0.35 µM; in test [2] (setting [5]), 0.4 µM.

For the compound `CNc1cc(Nc2cccn(-c3ccc(C(C)(C)O)cn3)c2=O)nn2c(C(=O)NC3CC3)cnc12` [Example 252, N-cyclopropyl-6-((5′-(2-hydroxypropan-2-yl)-2-oxo-2H-[1,2′-bipyridin]-3-yl)amino)-8-(methylamino)imidazo[1,2-b]pyridazine-3-carboxamide], the IC50 in test [3] (setting [7]) was 0.45 µM; in test [2] (setting [5]), 0.19 µM.

With `CNc1cc(Nc2cccn(-c3cnc(C(C)(C)O)cn3)c2=O)nn2c(C(=O)N[C@@H]3C[C@@H]3F)cnc12` [Example 255, N-((1R,2S)-2-Fluorocyclopropyl)-6-((1-(5-(2-hydroxypropan-2-yl)pyrazin-2-yl)-2-oxo-1,2-dihydropyridin-3-yl)amino)-8-(methylamino)imidazo[1,2-b]pyridazine-3-carboxamide], the IC50 in test [3] (setting [7]) was 0.0308 µM; in test [2] (setting [5]), 0.028 µM.

As to `CNc1cc(Nc2cccn(-c3cnc(C(=O)N(C)C)cn3)c2=O)nn2c(C(=O)N[C@@H]3C[C@@H]3F)cnc12` [Example 256, 6-((1-(5-(Dimethylcarbamoyl)pyrazin-2-yl)-2-oxo-1,2-dihydropyridin-3-yl)amino)-N-((1R,2S)-2-fluorocyclopropyl)-8-(methylamino)imidazo[1,2-b]pyridazine-3-carboxamide], the values for the IC50 in test [3] (setting [7]) and in test [2] (setting [5]) were 0.013 µM and 0.0098 µM, respectively.

Take `CNc1cc(Nc2cccn(-c3ccc(C(=O)N(C)C)cn3)c2=O)nn2c(C(=O)N[C@@H]3C[C@@H]3F)cnc12` [Example 257, 6-((5′-(Dimethylcarbamoyl)-2-oxo-2H-[1,2′-bipyridin]-3-yl)amino)-N-((1R,2S)-2-fluorocyclopropyl)-8-(methylamino)imidazo[1,2-b]pyridazine-3-carboxamide]: the half-maximal inhibitory concentration (IC50) is 0.18 µM in test [3] (setting [7]) and 0.07 µM in test [2] (setting [5]).

As for `CNc1cc(Nc2cccn(-c3ccc(CO)cn3)c2=O)nn2c(C(=O)NC3CC3)cnc12` [compound 253], the values for the IC50 in test [3] (setting [7]) and in test [2] (setting [5]) were 0.18 µM and 0.45 µM, respectively.

In the case of `CNc1cc(Nc2cccn(-c3ccc(C(C)O)cn3)c2=O)nn2c(C(=O)NC3CC3)cnc12` (stereo not shown) [compound 254], the IC50 amounted to 0.23 µM in test [3] (setting [7]) and 0.26 µM in test [2] (setting [5]).

Consider `CNc1cc(Nc2cccn(-c3cncc(C#N)n3)c2=O)nn2c(C(=O)NCC(C)(C)CO)cnc12` [compound 258], for which the IC50 amounted to 1.22 µM in test [3] (setting [7]) and 0.59 µM in test [2] (setting [5]).

With `CNc1cc(Nc2cccn(-c3cnccn3)c2=O)nn2c(C(=O)NC3CCC(O)C3(C)C)cnc12` (stereo not shown) [compound 259], the IC50 in test [3] (setting [7]) stood at 0.61 µM; in test [2] (setting [5]), 0.42 µM.

Take `CCOc1ccc(-n2cccc(Nc3cc(NC)c4ncc(C(=O)N[C@@H]5C[C@@H]5F)n4n3)c2=O)nn1` [compound 260]: the IC50 in test [3] (setting [7]) and in test [2] (setting [5]) was 0.01 µM each time.

For the compound `CNc1cc(Nc2cccn(-c3ccc(OC)nn3)c2=O)nn2c(C(=O)N[C@@H]3C[C@@H]3F)cnc12` [compound 261], the IC50 in test [3] (setting [7]) was 0.01 µM; in test [2] (setting [5]), 0.02 µM.

Take `CNc1cc(Nc2cccn(-c3cnc(C(=O)N(C)C)cn3)c2=O)nn2c(C(=O)NCC(C)(C)CO)cnc12` [compound 262]: the IC50 in test [3] (setting [7]) was 0.09 µM; in test [2] (setting [5]), 0.11 µM.

As to `CCN(C)C(=O)c1ccc(-n2cccc(Nc3cc(NC)c4ncc(C(=O)N[C@@H]5C[C@@H]5F)n4n3)c2=O)nc1` [compound 263], the figures for the IC50 in test [3] (setting [7]) and in test [2] (setting [5]) were 0.16 µM and 0.05 µM, respectively.

With `CNc1cc(Nc2cccn(-c3ccc(C(=O)N4CCC4)cn3)c2=O)nn2c(C(=O)N[C@@H]3C[C@@H]3F)cnc12` [compound 264], the values for the IC50 in test [3] (setting [7]) and in test [2] (setting [5]) were 0.09 µM and 0.04 µM, respectively.

In the case of `CNc1cc(Nc2cccn(-c3ccc(C(=O)N4CCCC4)cn3)c2=O)nn2c(C(=O)N[C@@H]3C[C@@H]3F)cnc12` [compound 265], the IC50 in test [3] (setting [7]) is 0.04 µM; in test [2] (setting [5]), 0.06 µM.

In the case of `CNc1cc(Nc2cccn(-c3ccc(C(=O)N(C)C)cc3)c2=O)nn2c(C(=O)N[C@@H]3C[C@@H]3F)cnc12` [compound 266], the figures for the IC50 in test [3] (setting [7]) and in test [2] (setting [5]) were 0.12 µM and 0.11 µM, respectively.

As to `CNc1cc(Nc2cccn(-c3ccc(C(=O)N(C)C)cc3)c2=O)nn2c(C(=O)NCC(C)(C)CO)cnc12` [compound 267], the IC50 in test [3] (setting [7]) amounted to 0.36 µM; in test [2] (setting [5]), 0.29 µM.
